Legend:
[1] = species on record: Rattus norvegicus; test: Intrinsic activity in rat aorta was determined; format: functional
[2] = species on record: Rattus norvegicus; test: Negative logarithm of the molar concentration required to relax rat aorta precontracted with 30 mM KCL by 50% of intrinsic activity; format: functional

| SMILES | EC50 [2] [nM] | Intrinsic activity [1] [%] |
| --- | --- | --- |
| N#Cc1ccc2c(c1)C(c1cccc[n+]1[O-])=CC(CF)(CF)O2 | 16.6 | 71.1 |
| N#C[N-][n+]1ccccc1C1=CC(CF)(CF)Oc2ccc(C(F)(F)F)cc21 | 9.55 | 62.3 |
| CC1(C)C=C(c2cccc[n+]2[N-]C#N)c2cc(C#N)ccc2O1 | 97.7 | 63.2 |
| O=[N+]([O-])[N-][n+]1ccccc1C1=CC(CF)(CF)Oc2ccc([N+](=O)[O-])cc21 | 1000 | 98.5 |
| N#C[N-][n+]1ccccc1C1=CC(CF)(CF)Oc2ccc(C(F)(F)C(F)(F)F)cc21 | 2.95 | 71.9 |
| N#C[N-][n+]1ccccc1C1=CC(CF)(CF)Oc2ccc(C(F)(F)C(F)(F)C(F)(F)F)cc21 | 17.8 | 74.6 |
| CC1(C)C=C(c2cccc[n+]2[O-])c2cc(C#N)ccc2O1 | 24.5 | 78.2 |
| N#C[N-][n+]1ccccc1C1=CC(CF)(CF)Oc2ccc(C#N)cc21 | 51.3 | 76.9 |
| CC1(C)Oc2ccc(C#N)cc2[C@@H](N2CCCC2=O)[C@@H]1O [LEVCROMAKALIM] | 162 | 72.5 |

Now from value to molecule, other results behind:

| EC50 [2] [nM] | SMILES | Intrinsic activity [1] [%] |
| --- | --- | --- |
| 1.74 | O=[N+]([O-])c1ccc2c(c1)C(c1cccc[n+]1[O-])=CC(CF)(CF)O2 | 66.3 |
| 9120 | O=C([N-][n+]1ccccc1C1=CC(CF)(CF)Oc2ccc([N+](=O)[O-])cc21)Nc1ccccc1 | 89.5 |
| 4.57 | N#C[N-][n+]1ccccc1C1=CC(CF)(CF)Oc2ccc([N+](=O)[O-])cc21 | 72.7 |
| > 10000 | O=C([N-][n+]1ccccc1C1=CC(CF)(CF)Oc2ccc([N+](=O)[O-])cc21)c1ccccc1 | – |
| > 10000 | CC(=O)[N-][n+]1ccccc1C1=CC(CF)(CF)Oc2ccc([N+](=O)[O-])cc21 | – |
| 3020 | CS(=O)(=O)[N-][n+]1ccccc1C1=CC(CF)(CF)Oc2ccc([N+](=O)[O-])cc21 | 74.2 |

Reference: ChEMBL document CHEMBL1127232, “Synthesis and vasorelaxant activity of N-imino-2-(benzopyran-4-yl)pyridine K+ channel openers” (Bioorg Med Chem Lett, 1994)
